This note sets out measurements from article PMC12040169 (PLOS Biology, 2025).

A short description of the data set: in vitro. The settings on record: human, hela cells, % viability.

As a reminder, the viability is a read-out of living cells in per cent, often relative to untreated cells. With `Nc1cc(=O)[nH]c(SCC(=O)N2CCc3ccccc32)n1` [CBK307424], the viability at 28.5 h, 10 µM was determined as 94.4%.
Take `COc1ncc(-c2nccnc2OC2CCCCC2)c(OC)n1` [CBK106745]: the viability at 28.5 h, 10 µM stood at 90.8%.
For `COc1ccc(CCN(C(C)=O)C2CC(=O)N(c3ccccc3)C2=O)cc1OC` (centres unmarked) [CBK262349], the viability at 28.5 h, 10 µM amounted to 89.5%.
Regarding `CCCC(=O)c1ccc(S(=O)(=O)N2CCCN(Cc3cccnc3N3CCOCC3)CC2)cc1` [CBK062900], the viability at 28.5 h, 10 µM was 93.9%.
In the case of `COCC(=O)Nc1ccc(N2CCCC2=O)c(Cl)c1` [CBK256871], the viability at 28.5 h, 10 µM was 106%.
`CN(c1ccccc1)S(=O)(=O)c1ccc(C(=O)NCc2cccnc2)cc1` [CBK297522]: the viability at 28.5 h, 10 µM came to 95.5%.
In the case of `CCN(CC)CCNC(=O)CN1CCCC1=O` [CBK261312], the viability at 28.5 h, 10 µM (bulk resorufin, single well) amounted to 84.6%.
As to `CCC(CC)C(=O)Nc1ccc([C@@H](O)[C@H]2COCC(=O)N2CC)cc1` [CBK289684], the viability at 28.5 h, 10 µM was 107%.
Regarding `Cc1cc(C)c2c(c1)cc(C)c1nn(CC(=O)N(C)C)c(=O)n12` [CBK283927], the viability at 28.5 h, 10 µM was 96.9%.
On to `COc1ccc(C(NC(=O)C2CCN(CCn3cnc4c3c(=O)n(C)c(=O)n4C)CC2)c2ccco2)cc1` (centres unmarked) [CBK148308], for which the viability at 28.5 h, 10 µM was found to be 85.8%.
Same read-out and setting: the result for `Cc1ccn2c(CN3CCCC(Cn4ccnc4C)C3)c(C)nc2c1` (centres unmarked) [CBK281964] reads 86.6%; that for `CCc1nc2c(OCCOc3ccccc3)cccn2c1N(C=O)CC(=O)N(C)C` [CBK147510], 96.5%; that for `O=C(O)c1ccc(S(=O)(=O)NCc2ccccc2)cc1` [CBK262093], 102%.
In the case of `Clc1ccccc1C1N(Cc2ccccc2)CCN1Cc1ccccc1` [CBK261217], the viability at 28.5 h, 10 µM was 93.8%.
In the case of `COc1cc(Nc2cncc(-c3ccc(O)cc3)n2)c(Cl)cc1C(=O)NCC1CCCO1` (centres unmarked) [CBK126468], the viability at 28.5 h, 10 µM was 100%.
On to `O=C(O)CNC(=O)c1ccc(S(=O)(=O)N2CCOCC2)cc1` [CBK267437], for which the viability at 28.5 h, 10 µM was 112%.
Turning to `CN1C(=O)CC2(C1=O)C(=O)N(CCN1CCCC1=O)c1ccc(F)cc12` (centres unmarked) [CBK075463], the viability at 28.5 h, 10 µM came to 90.4%.
Consider `COc1cccc(CSC2=C(C#N)C(c3cccs3)C(C(=O)Nc3ccccc3)=C(C)N2)c1` (centres unmarked) [CBK267458], for which the viability at 28.5 h, 10 µM worked out at 83.2%.
Turning to `CCOC(=O)c1ccc(NC(=O)c2c(O)[nH]c(=O)[nH]c2=O)cc1` [CBK115565], the viability at 28.5 h, 10 µM (bulk resorufin, single well) was found to be 84.7%.
`CCCC(C(=O)O)C(C)CC(=O)Nc1ccccc1Cl` (centres unmarked) [CBK286927]: the viability at 28.5 h, 10 µM came to 99.1%.
As for `O=C1CC(C(=O)N2CCN(C(=O)c3ccco3)CC2)c2ccccc21` (centres unmarked) [CBK144464], the viability at 28.5 h, 10 µM is 105%.
On the same count and under the same terms, the value for `CC(C)CNC(=O)N(CCc1ccccc1)Cc1ccccc1` [CBK155339] was 93.8%; that for `CN1CCN(C(=O)C2CCCCC2C(=O)O)CC1` (centres unmarked) [CBK287092] was 86.4%.
`CCCCN(CC(N)=O)C(=O)c1sc(COc2ccc(Cl)cc2)nc1C` [CBK304539]: the viability at 28.5 h, 10 µM was found to be 101%.
For `COCC(=O)N1CCc2sccc2C1c1ccc(NC(=O)c2ccco2)cc1` (centres unmarked) [CBK286200], the viability at 28.5 h, 10 µM was 95.6%.
The same measure, in the same setting: the value for `Nc1ncc(CCCN2CCOCC2)c(N)n1` [CBK025981] was 125%; that for `CC(C)c1cc(C(=O)N(C)Cc2cccc3ncccc23)n(C)n1` [CBK282567] was 86.4%; that for `CCOc1cc(C(c2c[nH]c3ccccc23)c2c[nH]c3ccccc23)cc([N+](=O)[O-])c1O` [CBK266061] was 101%.
Regarding `FC(F)(F)c1cccc(CSc2nccnc2N2CCCC2)c1` [CBK107178], the viability at 28.5 h, 10 µM is 94.7%.
In the case of `O=C(O)c1ccccc1-n1c(=O)c2cc3c(=O)n(-c4ccccc4C(=O)O)c(=O)c3cc2c1=O` [CBK261097], the viability at 28.5 h, 10 µM was determined as 87.5%.
As to `COc1ccc(NC(=O)c2cnc(-c3cccc(C)c3)c(-c3ccco3)c2)cc1` [CBK037491], the viability at 28.5 h, 10 µM is 83.9%.
As to `CN1CCN(C(=O)Cn2cccc(C(=O)Nc3ccc(F)cc3)c2=O)C(c2ccccc2)C1` (centres unmarked) [CBK286045], the viability at 28.5 h, 10 µM worked out at 96.6%.
As to `CC1CCCN(Cc2nc3c(c(=O)n(C)c(=O)n3C)n2CC(N)=O)C1` (centres unmarked) [CBK306064], the viability at 28.5 h, 10 µM worked out at 82.3%.
On to `N#Cc1ccccc1COC(=O)c1cc(-c2ccc(/C=C/c3nc(O)c([N+](=O)[O-])c(=O)[nH]3)o2)ccc1Cl` [CBK269115], for which the viability at 28.5 h, 10 µM amounted to 101%.
On to `CCn1c(SCC(=O)N2CCN(c3ccccc3)CC2)nnc1-c1ccc(N)cc1` [CBK265786], for which the viability at 28.5 h, 10 µM came out at 103%.
As to `CCOc1cc(OCC)cc(C(=O)N2CCC3(CC2)NC(=O)c2cc(I)ccc2O3)c1` [CBK166301], the viability at 28.5 h, 10 µM worked out at 94.1%.
On the same count and under the same terms, the result for `Cc1cc(C)c2[nH]c(C(=O)NCc3c(C)n[nH]c3C)c(C)c2c1` [CBK283254] reads 87.4%; that for `CCC1CCCN(C(=O)Cc2c(C)nc(-c3cccnc3)[nH]c2=O)C1` (centres unmarked) [CBK305801], 91.7%; that for `O=C(c1ccc(F)cc1)C1CCN(CCc2c[nH]c3ccccc23)CC1` [CBK149125], 96.3%.
Same read-out and setting: the value for `CC(C)NC(=O)Cn1c(-c2cccs2)cc2cccnc21` [CBK282454] was 97.3%.
The same measure, in the same setting: the result for `CCn1c2ccccc2c2cc(NC(=O)CC(C)CC(=O)O)ccc21` (centres unmarked) [CBK300031] reads 103%; that for `Cc1ccc(C(=O)N[C@H]2CO[C@H]3[C@@H]2OC[C@@H]3n2cc(-c3ccccc3)nn2)cc1` [CBK289504], 81.4%; that for `O=C(O)CCCC(=O)NC(Cc1ccccc1)C(=O)Nc1ccc([N+](=O)[O-])cc1` (centres unmarked) [CBK299806], 84.5%.
As to `c1ccc(C(NCc2cnc(-c3ncccn3)s2)C2CCC2)cc1` (centres unmarked) [CBK304013], the viability at 28.5 h, 10 µM is 81.5%.
Regarding `CN(c1ccccc1)S(=O)(=O)c1cccc(NC(=O)Cc2csc(-c3ccco3)n2)c1` [CBK297792], the viability at 28.5 h, 10 µM was 75.9%.
Consider `CCN(CC)C(=O)CN1CCCN(c2cc(Oc3ccc(OC)c(OC)c3)ncn2)CC1` [CBK083359T], for which the viability at 28.5 h, 10 µM was determined as 98.5%.
On the same count and under the same terms, the result for `COC(=O)CCCN1CCCC12CCc1[nH]c3ccccc3c1C2` (centres unmarked) [CBK107798T] reads 95.6%; that for `CCOc1ccc(S(=O)(=O)N2CCCC(C(=O)NCCO)C2)cc1` (centres unmarked) [CBK269968], 83.8%.
On to `Cn1c(=O)c2c(nc(NCc3ccccc3)n2C)n(C)c1=O` [CBK139872], for which the viability at 28.5 h, 10 µM is 95.9%.
With `Cc1ccccc1C(=O)NC(=S)Nc1sc2c(c1C#N)CCCC2` [CBK264403], the viability at 28.5 h, 10 µM is 98.3%.
On to `CC1(C)NC(=O)N(CCCC(=O)NCc2coc(-c3cccs3)n2)C1=O` [CBK237157], for which the viability at 28.5 h, 10 µM was found to be 105%.
Same read-out and setting: the value for `Cc1nc(C(Cc2ccsc2)NC(=O)C2CCC(=O)N2)sc1C` (centres unmarked) [CBK284780] was 101%; that for `CCCN1C[C@H](NC(=O)CC)[C@@H](c2ccc(OC)cc2)C1` [CBK282134] was 82.3%.
With `Cc1ccc(-c2nn(CCC#N)cc2C(=O)N2CCOCC2)cc1` [CBK305939], the viability at 28.5 h, 10 µM came out at 96.2%.
For the compound `CCCN1CCC(NCC(C)(C)CN(C)C)CC1` [CBK261934], the viability at 28.5 h, 10 µM was 89.3%.
With `O=C(NCCC1=CCCCC1)Nc1ccc(F)c(F)c1F` [CBK043265], the viability at 28.5 h, 10 µM amounted to 89.3%.
